Experimental data from patent publication US11197908B2, “Peptoids and methods for attenuating inflammatory response” (THE BOARD OF TRUSTEES OF THE UNIVERSITY OF ARKANSAS, priority 2018, dated 2021).
Where a SMILES comes first, the peptide text is derived from it. [ ]: non-standard residue; d: D form. N(1S-Me-propyl)Gly = CC[C@H](C)NCC(=O)O; Nspe = C[C@H](NCC(=O)O)c1ccccc1; Nlys = NCCCCNCC(=O)O

What was measured:
[1] = test system: RAGE; assay: RAGE upregulation in THP-1 macrophages co-incubated with peptoid and low-dose LPS (confocal imaging); format: cell-based, human; conditions: 3 days
Method: (§1) THP-1 monocytes were differentiated into macrophages through exposure to phorbol 12-myristate 13-acetate (PMA) for three days prior to experimentation 10. […] Upon differentiation, these cells were then incubated (3 days) with media containing JPT1a (50, 10, or 2 μM) alone or JPT1a (50, 10, or 2 μM) in the presence of low-dose (2 ng/mL) lipopolysaccharide (LPS) as a chronic pro-inflammatory stimulus 11. Treatment with 2 ng/mL LPS alone served as a positive control, while treatment with an equivalent volume of buffer diluted into media served as the vehicle. Cellular supernatant was harvested on day 3 12; these samples were immediately centrifuged at 1200 rpm for 10 min at 25° C. to remove any cells or debris. The top 80% of this volume was subsequently removed and stored at −80° C. for later assessment of cytokines via ELISA. Cells were fixed and stained for RAGE, phalloidin (cytoplasmic marker), and DAPI (nuclear marker) 13. Each channel was imaged with a Zeiss LSM 510 META Confocal Scanning Laser Microscope using a plan-neofluar 40×/1.3 oil DIC immersion objective; three of these multi-channel images were obtained from each slide in each experiment 14. All multi-channel images were converted to TIFF file format via ImageJ64 software for quantitative image analysis using a custom subroutine written in Matlab™ software to obtain the average RAGE expression per volume of cells, and the data generated was assessed for statistical significance using GraphPad Prism 7.0 software 15.
(§2) Images acquired via confocal microscopy were analyzed via custom MATLAB™ subroutine to determine the average quantity of RAGE present within a given volume of cells. Results within each experiment are normalized to the positive control (2 ng/mL LPS alone), indicated by the dashed line at 1. Significance relative to positive control is indicated as ** p<0.01. Error bars indicate SEM, n=4.
as §2, with “1.0.” for “1. Significance relative to positive control is indicated as ** p<0.01.”, “n=2.” for “n=4.”

[2] = test system: IL-8; assay: IL-8 in supernatant of THP-1 macrophages co-incubated with peptoid and LPS (ELISA); format: cell-based, human; conditions: 3 days, vs LPS alone
Method: as §1, with “The top 80% of this volume was subsequently removed and stored at −80° C. for later assessment of cytokines via ELISA. Cells were fixed and stained for RAGE, phalloidin (cytoplasmic marker), and DAPI (nuclear marker) 13. Each channel was imaged with a Zeiss LSM 510 META Confocal Scanning Laser Microscope using a plan-neofluar 40×/1.3 oil DIC immersion objective; three of these multi-channel images were obtained from each slide in each experiment 14.” left out
(§3) As shown in FIGS. 2B-2D, THP-1 macrophages were treated with JPT1a alone (white) or in the presence of a chronic low-dose (2 ng/mL) of LPS (grey), for 3 days prior to supernatant harvest and storage. Examination of the supernatant via ELISA determined the concentrations of (FIG. 2B) IL-1β, (FIG. 2C) IL-6, and (FIG. 2D) IL-8. […]

[3] = target: T1, Aβ1-40 (Homo sapiens, UniProt P05067); conditions: cited from earlier work
T1 construct: modulate Aβ1-40 aggregation
T1 sequence (P05067 672-711 limits assumed): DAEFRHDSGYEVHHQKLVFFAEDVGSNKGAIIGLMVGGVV

[4] = test system: IL-1β; assay: IL-1β in supernatant of THP-1 macrophages co-incubated with peptoid and LPS (ELISA); format: cell-based, human; conditions: peptoid 50 μM with 2 ng/mL LPS, 3 days; vs LPS alone
Method: as §1, with “The top 80% of this volume was subsequently removed and stored at −80° C. for later assessment of cytokines via ELISA. Cells were fixed and stained for RAGE, phalloidin (cytoplasmic marker), and DAPI (nuclear marker) 13. Each channel was imaged with a Zeiss LSM 510 META Confocal Scanning Laser Microscope using a plan-neofluar 40×/1.3 oil DIC immersion objective; three of these multi-channel images were obtained from each slide in each experiment 14.” left out
as §3

[5] = test system: RAGE; assay: Reversal of LPS-induced RAGE expression in previously stimulated THP-1 macrophages (confocal imaging); format: cell-based, human; conditions: additional 24 h, vs LPS alone
Method: THP-1 monocytes were differentiated as described above 20. Upon differentiation, these cells were then incubated (48 h) with media containing low-dose (2 ng/mL) LPS as a chronic pro-inflammatory stimulus 21. Following incubation, JPT1a or JPT1 was added for final concentrations of 25, 5, and 1 μM 22, and cells were incubated an additional 24 h. Treatment with 2 ng/mL LPS alone served as a positive control, while treatment with an equivalent volume of buffer diluted into media served as the vehicle. Media was collected for later assessment of cytokines via ELISA as described above 23. Cells were fixed and stained for RAGE, phalloidin (cytoplasmic marker), and DAPI (nuclear marker) 24. […] 25 All multi-channel images were converted to TIFF file format via ImageJ64 software for quantitative image analysis using a custom subroutine written in Matlab™ software to obtain the average RAGE expression per volume of cells, and the data generated was assessed for statistical significance using GraphPad Prism 7.0 software 26.
After 48 hours, half of the supernatant was removed, treated with JPT1a (dashed-grey) at final concentrations of 25, 5, 1, and 0 μM (positive control), and then added back to respective samples. […] Images were analyzed via custom MATLAB™ subroutine to determine the average quantity of RAGE present within a given volume of cells. […]

[6] = target: RAGE (Homo sapiens, UniProt Q15109); assay: RAGE binding to peptoid-coated 96-well plates, Scatchard plot; conditions: plates coated with 500 nM peptoid; JPT1a n=3 average, JPT1 n=1
Sequence of RAGE (Homo sapiens, UniProt Q15109) (Q15109 23-404): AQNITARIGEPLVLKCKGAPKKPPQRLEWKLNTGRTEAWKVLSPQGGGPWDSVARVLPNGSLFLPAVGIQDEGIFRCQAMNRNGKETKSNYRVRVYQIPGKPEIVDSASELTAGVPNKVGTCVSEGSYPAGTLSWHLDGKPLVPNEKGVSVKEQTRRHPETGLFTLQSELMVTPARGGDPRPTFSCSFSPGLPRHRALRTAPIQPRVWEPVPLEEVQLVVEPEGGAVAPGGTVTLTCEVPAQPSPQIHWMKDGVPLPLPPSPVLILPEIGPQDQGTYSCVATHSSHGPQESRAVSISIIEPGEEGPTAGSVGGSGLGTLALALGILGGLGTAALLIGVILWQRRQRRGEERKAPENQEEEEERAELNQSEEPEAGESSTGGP
Method: As shown in FIGS. 7A-7D, 96-well plates coated with 500 nM JPT1a were treated with concentrations of RAGE (FIG. 7A) or E-cadherin (FIG. 7B) ranging from 1 to 500 nM. Values are reported as the average concentration of bound protein determined from all experiments. Error bars indicate SEM, n=2-5. […] In FIG. 7D, 96-well plates coated with 500 nM JPT1 were treated with concentrations of RAGE ranging from 1 to 350 nM.

Q: What does the source list for `CC[C@H](C)N(CC(=O)N(CC(=O)N(CC(=O)N(CC(=O)N(CC(=O)N(CC(=O)N(CC(N)=O)[C@@H](C)c1ccccc1)[C@@H](C)c1ccccc1)[C@@H](C)CC)[C@@H](C)c1ccccc1)[C@@H](C)c1ccccc1)[C@@H](C)CC)C(=O)CNCCCCN` [JPT1a] (H-[Nlys][N(1S-Me-propyl)Gly][N(1S-Me-propyl)Gly][Nspe][Nspe][N(1S-Me-propyl)Gly][Nspe][Nspe]-NH2)?
A: upregulation in RAGE expression in the presence of LPS ([1]; peptoid 50, 10 or 2 μM with 2 ng/mL LPS, normalized to LPS alone): reduced in a dose-dependent and significant manner; expression of RAGE, peptoid alone ([1]; peptoid alone (no LPS), relative to the control): does not provoke significant response or upregulation; levels of LPS-induced IL-8 ([2]; peptoid 10 μM with 2 ng/mL LPS): significantly reduces; LPS-induced production of IL-8 ([2]; peptoid 50 μM with 2 ng/mL LPS): significantly attenuates; Aβ1-40 aggregation [3]: capacity to modulate Aβ1-40 aggregation; LPS-induced production of IL-1β [4]: significantly attenuates; reversal in LPS-induced RAGE expression ([5]; 5 μM added after 48 h of 2 ng/mL LPS): significant reversal; reversal in LPS-induced RAGE expression ([5]; 25 μM added after 48 h of 2 ng/mL LPS): significant reversal; Kd [6]: 0.0518 ± 0.0073 µM
